Measured values as given in patent US8623832B2, “Peptide compositions that bind TLR-4” (The Board of Regents of the University of Oklahoma, priority 2011, dated 2014).
Where no end group is shown, it is not given here.

What was measured:
[1] = Binding to LPS by Limulus Amoebocyte Lysate (LAL) assay; design: species or system Escherichia coli; settings: 0-20 μM peptide; 0.01 ng/ml LPS; read at 6 and 12 minutes
Description: Binding of SPA4 peptide to LPS: The binding of SPA4 peptide to LPS was studied by LAL assay as per the method described by Giacometti et al. (2004). Briefly, 0-20 μM SPA4 peptide or polymyxin B (positive control) solutions were added to 0.01 ng/ml Escherichia coli O111:B4 LPS (supplied with the kit, Charles River Laboratories International, Inc., Wilmington, Mass.) in the wells of a 96 well plate and incubated at 37° C. for 40 minutes. Fifty μl of LAL substrate solution was then added to each well, and the plate was incubated for another 10 minutes. Finally, substrate-buffer solution was added, and optical density readings (OD) were obtained at 405 nm after 0, 6 and 12 minutes of addition of substrate. AOD values for SPA4 peptide or polymyxin B incubated with LPS (ΔODtreatment), LPS alone (ΔODLPS) and blank (ΔODBlank) were calculated by subtracting the OD values obtained at 6 or 12 minutes from those obtained at 0 minutes. Percent binding of SPA4 peptide and polymyxin B was calculated at 6 and 12 minutes of reaction using following formula: […]

[2] = tested on: NF-κB pathway molecules (IKBα, phosphorylated IKBα, p65, phosphorylated p65, RelB, COX-2); assay: Expression of NF-κB pathway molecules in SW480 cell lysates by immunoblotting; assay type: cell-based, human
Description: Expression of NF-κB pathway molecules by immunoblotting: The expression of NF-κB pathway molecules (inhibitor kappa-Bα: IKBα, phosphorylated IKBα, p65, phosphorylated p65, RelB and COX-2) in SW480 cell-lysates treated with LPS±SPA4 peptide was studied by immunoblotting. For the immunoblotting, 10 μg of total cell-lysate proteins were fractionated on Novex 4-20% Tris-glycine gradient SDS-PAGE gel (Invitrogen, Carlsbad, Calif.) by electrophoresis. Separated proteins were electro-transferred onto a nitrocellulose membrane using iBlot gel transfer device (Invitrogen, Carlsbad, Calif.). The non-specific sites were blocked by incubating the membrane with 7% skimmed milk in Tris-buffered saline with 0.4% TWEEN®-20 (TBST) for 1 hour at room temperature. The blocked membranes were incubated overnight at 4° C. with 1:1000 diluted anti-human antibodies against NF-κB canonical pathway molecules: phosphorylated inhibitor kappa-Bα (IKBα), total-IKBα, p65, RelB (Cell Signaling Technology, Inc., Danvers, Mass.), phosphorylated p65 (Santacruz Biotech, Inc., Santa Cruz, Calif.) and cyclooxygenase-2 (COX-2; Santacruz Biotech, Inc., Santa Cruz, Calif.). The membranes were washed with TBST and incubated at room temperature for 45 minutes with 1:3500 diluted horse-radish peroxidase (HRP)-conjugated-secondary antibody (Sigma-Aldrich, St. Louis, Mo.). The immunoreactive bands were detected by Super Signal West Femto detection reagent (Thermo Fisher Scientific, Barrington, Ill.). In order to ensure equal protein loading in the wells, the membranes were stripped of probing antibodies at 60° C. for 45 minutes using a stripping solution containing 10% SDS, 0.5 M Tris and […] (35 μl/ml), and re-probed with anti-actin antibody (Sigma-Aldrich, MO; 1:1000 in TBST). The immunoblots were imaged using the Ultraquant image acquisition program (UltraLum Inc., Claremont, Calif.). The densitometric readings were obtained for immunoreactive bands with Image J 1.42 q program (NIH, USA). Finally, arbitrary densitometric values for proteins of interest were normalized with those of β-actin.

[3] = tested on: primary adult baboon lung DCs and fetal baboon lung DC-precursor cells; assay: Phagocytosis of pHrodo-labeled E. coli bioparticles by primary baboon lung DCs / fetal DC-precursor cells; assay type: cell-based
Description: Freshly collected lobe of the lung or whole lung samples of adult and fetal baboons were transported on ice in RPMI 1640 medium containing 2 mM glutamine, 1 mM HEPES, 10 μg/ml gentamicin, 100 U/ml penicillin, 100 μg/ml streptomycin and 10% FBS. After a mild mechanical disruption, the single cell suspension was seeded in a tissue culture flask (Nalge-Nunc International Corp, NY) at a density of 30-50×10^6 leukocytes/175 cm^2 flask in RPMI 1640 medium containing 2 mM glutamine, 1 mM HEPES, 10 μg/ml gentamicin, 100 U/ml penicillin, 100 μg/ml streptomycin and 10% FBS. The light-density DC-populations were harvested using OptiPrep cell-separation solution (density 1.32 g/ml, Accurate Chemicals, NY) (Awasthi and Cooper, 2006; Awasthi et al., 2009). The immunophenotype and basic characteristics of the lung DC-population isolated from fetal and adult baboons have been described earlier (Awasthi et al., 2009). Here, first the immunophenotype of KG-1-derived DCs and fetal baboon lung DC-precursors or adult baboon lung DCs were compared by flow cytometry. Briefly, cells were suspended in Dulbecco's phosphate buffered saline (DPBS) containing 1% FBS and 0.09% sodium azide and incubated with fluorochrome-conjugated antibodies to HLA-DP, DQ, DR, CD11c, CD40, CD80, CD86 (typical DC-markers) as described earlier.
After confirming that the fluorescence is of phagocytosed bioparticles, comprehensive experiments were performed in presence and absence of effector molecules (SP-A and TLR4-MD2 proteins). […] The fluorescence readings were taken at 550 nm excitation and 600 nm emission wavelengths using SpectraMax M2 spectrofluorometer (Molecular Devices, CA).
The phagocytosis index was calculated by subtracting the average fluorescence intensity of the reaction with bioparticles alone from the control (basal without any effector molecules) and experimental wells. Finally, the percent effect was calculated using the following formula: % effect=(Net experimental phagocytosis/Net basal phagocytosis)×100%

[4] = Solubility of purified baboon lung SP-A; assay type: physicochemical

Row | Substance | binding to LPS [1] | expression of RelB ([2]; LPS-challenged) | expression of phosphorylated IKBα ([2]; LPS-challenged) | expression of COX-2, short-term treatment ([2]; LPS-challenged, 5 hours model) | expression of phosphorylated p65, short-term treatment ([2]; LPS-challenged, 5 hours model) | expression of total IKBα, short-term treatment ([2]; LPS-challenged, 5 hours model) | expression of COX-2, long-term treatment ([2]; LPS-challenged, 9 hours model) | expression of phosphorylated p65, long-term treatment ([2]; LPS-challenged, 9 hours model) | expression of total IKBα, long-term treatment ([2]; LPS-challenged, 9 hours model) | expression of NF-κB signaling molecules, SPA4 peptide alone ([2]; no LPS) | phagocytic uptake of E. coli ([3]; SP-A 2 μM, TLR4-MD2 0.3 μM) | phagocytic uptake of E. coli when SP-A and TLR4-MD2 proteins were added together ([3]; uptake remained increased versus basal) | solubility [4]
1 | GDFRYSDGTPVNYTNWYRGE [SPA4, GDFRYSDGT PVNYTNWYRGE] | does not bind to LPS | No effect | No effect | decrease | decrease | increase | remained low | remained low | decreased | did not affect the expression of any of the NF-κB signaling molecules studied, except for COX-2 | – | – | –
2 | SP-A: native surfactant protein-A purified from bronchioalveolar lavage fluid of a normal healthy adult baboon (MWLCPLALTLTLMAASGAACEVKDVCVGSPGIPGTPGSHGLPGRDGRDGVKGDPGPP; listed as Papio cynocephalus) | – | – | – | – | – | – | – | – | – | – | increased | no additive effect | 51%
